Like-named read-outs stand apart in the source and are kept apart here.
How the values were obtained:
blood glucose [1] = conditions: oral sulfonylureas; cited from earlier work
blood glucose [2] = conditions: marketed insulin preparations; cited from earlier work
[3] = cited from earlier work; for time to peak plasma/serum drug concentration (tmax): fasting or immediately prior to a meal
[4] = Moisture content / hygroscopicity of 4-CNAB; assay type: physicochemical; conditions: below 75% RH
Sprague-Dawley rats = assay: Oral repeated dose toxicity studies in rats; assay type: in vivo, rat
Experimental: (§1) Toxicology studies were also conducted in rats and monkeys to assess the potential toxicity of 4-CNAB, alone or in combination with insulin. Based on the 14-day oral repeated dose toxicity studies, the NOAEL (No-Adverse Effect Level) was estimated to be 500 mg/kg in Sprague-Dawley rats, and 400 mg/kg in rhesus monkeys. […] Developmental and reproductive toxicology studies have not yet been conducted.

receptors = assay: Receptor binding screening assays
Experimental: Insulin/4-CNAB capsules were evaluated by Emisphere Technologies, Inc. in a nonclinical program that included pharmacological screening, pharmacokinetic and metabolic profiles, and toxicity assessments in rats and monkeys. […] Similarly, for a fixed oral dose of 4-CNAB, insulin absorption increased with increasing doses of insulin.

Genotoxicity studies = conditions: four genotoxicity studies
Experimental: as §1

rhesus monkeys = assay: Oral repeated dose toxicity studies in monkeys; assay type: in vivo, rhesus monkey
Experimental: as §1

[5] = Plasma 4-CNAB concentration (Example 1); assay type: in vivo, human; conditions: after start of meal intake; 200 mg or 400 mg 4-CNAB capsules
Experimental: During each treatment session, blood samples were collected for determination of plasma concentrations of 4-CNAB, insulin and C-peptide, and for blood glucose concentration. Sampling started 1 hour before intake of the test meal and continued until 6 hours thereafter. Blood samples were drawn via a venous cannula and collected related to the start of the test meal at time point 0. The timing of scheduled samples could be adjusted according to clinical needs or needs for pharmacokinetic data. The duration of each session was approximately 8-9 hours. All experiments were performed after an overnight fast of approximately 12 hours.
Blood samples for determination of 4-CNAB plasma concentrations (2 mL in sodium heparin tube) were drawn 10, 20, 30, 40, 60, 90, 120, 240 and 360 minutes after start of meal intake (9 samples per session). Blood samples for determination of insulin and C-peptide plasma concentrations (5 mL in sodium heparin tube) were drawn at −60 and −30 minutes, at time 0 (start of meal intake), and after 10, 20, 30, 40, 50, 60, 75, 90, 105, 120, 150, 180, 210, 240, 300, and 360 minutes (19 samples per session). Plasma concentrations of insulin were determined by a GLP-validated microparticle enzyme immunoassay (MEIA).
Blood samples for the determination of plasma concentrations of insulin, 4-CNAB and C-peptide were collected at defined intervals, as discussed above. […]

[6] = dosed three times daily before meals

For `CCC1=C(C)CN(C(=O)NCCc2ccc(S(=O)(=O)NC(=O)N[C@H]3CC[C@H](C)CC3)cc2)C1=O` [Glimepiride], the duration of action (blood glucose [1]) is listed as 18 to 28 h and the onset of action (blood glucose [1]) is listed as 2 h.
In the case of Glargine insulin: long-acting insulin, the duration of activity (blood glucose [2]) is given as 24 h and the “peak time of effect” value (blood glucose [2]) is given as “no peak effect”.
For `CN(CCOc1ccc(CC2SC(=O)NC2=O)cc1)c1ccccn1` (stereo not drawn) [AVANDIA® thiazolidinedione, rosiglitazone], the “time to peak concentration with food” value ([3]; food effect) is listed as “about 1.75 hours” and the “time to peak plasma/serum drug concentration (tmax)” value ([3]; oral) is listed as no more than 1 h.
In the case of Lantus®, the duration of activity (blood glucose [2]) is given as “up to 24 hours”.
In the case of `Cc1cnc(C(=O)NCCc2ccc(S(=O)(=O)NC(=O)NC3CCCCC3)cc2)cn1` [Glipizide], the duration of action (blood glucose [1]) is given as 10 to 24 h and the onset of action (blood glucose [1]) is given as “one”.
In the case of Ultralente insulin, the onset of action (blood glucose [2]) is listed as 2 to 4 h and the “peak time of effect” value (blood glucose [2]) is listed as 8 to 20 h.
For `CCc1ccc(CCOc2ccc(CC3SC(=O)NC3=O)cc2)nc1` (stereo not drawn) [ACTOS® thiazolidinedione, pioglitazone], the “first measurable in serum” value ([3]; oral, fasting state) is listed as no more than 30 min and the “time to peak plasma/serum drug concentration (tmax)” value ([3]; oral) is listed as no more than 2 h.
In the case of `CCCCNC(=O)NS(=O)(=O)c1ccc(C)cc1` [tolbutamide], the duration of action (blood glucose [1]) is listed as 6 to 12 h and the onset of action (blood glucose [1]) is listed as 1 h.
For `COc1ccc(Cl)cc1C(=O)NCCc1ccc(S(=O)(=O)NC(=O)NC2CCCCC2)cc1` [glyburide], the duration of action (blood glucose [1]) is listed as 18 to 24 h and the onset of action (blood glucose [1]) is listed as 1.5 h.
For `CCOc1cc(CC(=O)N[C@@H](CC(C)C)c2ccccc2N2CCCCC2)ccc1C(=O)O` [repaglinide], the “decrease in AUC when given with food” value ([3]; food effect) is listed as 12.4%, the “decrease in Cmax when given with food” value ([3]; food effect) is listed as 20% and the “time to peak plasma/serum drug concentration (tmax)” value ([3]; oral) is listed as no more than 1 h.
In the case of `CCCNC(=O)NS(=O)(=O)c1ccc(Cl)cc1` [Chlorpropamide], the duration of action (blood glucose [1]) is listed as 72 h and the onset of action (blood glucose [1]) is listed as “one”.
In the case of `Cc1ccc(S(=O)(=O)NC(=O)NN2CCCCCC2)cc1` [Tolazamide], the onset of action (blood glucose [1]) is given as 4 to 6 h.
For `CC(=O)c1ccc(S(=O)(=O)NC(=O)NC2CCCCC2)cc1` [Acetohexamide], the onset of action (blood glucose [1]) is listed as 1 h.
For `O=C([O-])CCCNC(=O)c1ccc(Cl)cc1O.[Na+]` [4-CNAB, sodium N-[4-(4-chloro-2 hydroxybenzoyl)amino]butyrate], the residual moisture content [4] was less than 0.5%, the “NOAEL (No-Adverse Effect Level)” value (Sprague-Dawley rats; 14-day oral repeated dose, Sprague-Dawley rats, 4-CNAB alone or in combination with insulin) was 500 mg/kg and the NOAEL (Sprague-Dawley rats; 90-day oral repeated dose, rats) was 250 mg/kg. The inherent pharmacological activity (receptors) was “no inherent pharmacological activity”, the genotoxicity findings (Genotoxicity studies) was “no positive findings” and the “NOAEL (No-Adverse Effect Level)” value (rhesus monkeys; 14-day oral repeated dose, rhesus monkeys) was 400 mg/kg. For the same compound, the NOAEL (rhesus monkeys; 90-day oral repeated dose, monkeys) was 600 mg/kg and the “plasma 4-CNAB concentration after 2 hours relative to the levels seen after 10 minutes” value [5] was “less than 10%”.
For `CC(C)[C@H]1CC[C@H](C(=O)N[C@H](Cc2ccccc2)C(=O)O)CC1` [nateglinide], the “time to stimulation of pancreatic insulin secretion” value ([3]; after oral administration) is listed as no more than 20 min, the “fall of plasma insulin to baseline after dosing” value [3, 6] is listed as no more than 4 h and the “time of peak plasma insulin levels after dosing” value [3, 6] is listed as roughly 1 h. The “time to peak plasma/serum drug concentration (tmax)” value ([3]; oral) was “one”.
